Measured values taken from the Kinase Knowledgebase extract (Sharma et al. 2016).

Legend:
MAPK14 (human) [1] = target: MAPK14 (human) (UniProt Q16539); assay: Sodium butyrate-induced Hemoglobinization (K562 Cells); conditions: concentration not given here
MAPK14 (human) [2] = target: MAPK14 (human) (UniProt Q16539); assay: Hydroxyurea-induced Hemoglobinization (K562 Cells); conditions: concentration not given here

Chain of MAPK14 (human) (Q16539 whole entry, looked up): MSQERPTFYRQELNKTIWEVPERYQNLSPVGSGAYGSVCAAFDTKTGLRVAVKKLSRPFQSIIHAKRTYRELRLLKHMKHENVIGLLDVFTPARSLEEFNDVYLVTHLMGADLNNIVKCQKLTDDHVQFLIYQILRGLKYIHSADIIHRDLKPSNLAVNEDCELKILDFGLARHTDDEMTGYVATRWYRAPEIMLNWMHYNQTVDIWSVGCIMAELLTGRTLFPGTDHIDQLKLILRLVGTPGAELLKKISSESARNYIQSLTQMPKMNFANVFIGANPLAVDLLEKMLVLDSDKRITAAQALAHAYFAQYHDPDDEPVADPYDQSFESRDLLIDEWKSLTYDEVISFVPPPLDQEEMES

Structure (SMILES): CCCC(=O)[O-].[Na+]
- cell count (MAPK14 (human) [1]): 39.8%

Structure (SMILES): COc1cccc(-c2cc(=O)c3ccccc3o2)c1N
- cell count (MAPK14 (human) [2]): 32.4%

Structure (SMILES): COc1cccc(-c2cc(=O)c3ccccc3o2)c1N.NC(=O)NO
- cell count (MAPK14 (human) [2]): 54%
